A short description of data set [1]: Oral bioavailability in rat (dose 5 mg/kg p.o.). The note with it: in vivo. It counts as ADME, organism-based.
A further data set has as its target Histamine H1 receptor (Homo sapiens, UniProt P35367). As to the kind of experiment: Binding affinity towards Histamine H1 receptor of human membranes.
Data set [2] addresses Histamine H3 receptor (Rattus norvegicus, UniProt Q9QYN8). As to the kind of experiment: Binding affinity towards Histamine H3 receptor of rat cortical membranes.
For a further data set, the target named is Histamine H2 receptor (Homo sapiens, UniProt P25021). As to the kind of experiment: Binding affinity towards Histamine H2 receptor from human membranes.
The target of data set [3] is Histamine H3 receptor (Rattus norvegicus) (UniProt Q9QYN8). As to the kind of experiment: In vitro histamine H3 receptor antagonist activity was determined by K+-evoked depolarization- induced release of [3H]histamine from rat synaptosomes. The format is functional, subcellular. The note with it: Brain.
The target of data set [4] is Histamine H3 receptor (Cavia porcellus, UniProt Q9JI35). As to the kind of experiment: Tested in vitro for histamine H3 receptor mediate inhibition of neurogenic contractions in guinea pig isolated ileum assay. It counts as functional, tissue-based. Conditions: read-out: pA2 (converted).
Histamine H3 receptor (Cavia porcellus, UniProt Q9JI35), sequence (Q9JI35 whole entry): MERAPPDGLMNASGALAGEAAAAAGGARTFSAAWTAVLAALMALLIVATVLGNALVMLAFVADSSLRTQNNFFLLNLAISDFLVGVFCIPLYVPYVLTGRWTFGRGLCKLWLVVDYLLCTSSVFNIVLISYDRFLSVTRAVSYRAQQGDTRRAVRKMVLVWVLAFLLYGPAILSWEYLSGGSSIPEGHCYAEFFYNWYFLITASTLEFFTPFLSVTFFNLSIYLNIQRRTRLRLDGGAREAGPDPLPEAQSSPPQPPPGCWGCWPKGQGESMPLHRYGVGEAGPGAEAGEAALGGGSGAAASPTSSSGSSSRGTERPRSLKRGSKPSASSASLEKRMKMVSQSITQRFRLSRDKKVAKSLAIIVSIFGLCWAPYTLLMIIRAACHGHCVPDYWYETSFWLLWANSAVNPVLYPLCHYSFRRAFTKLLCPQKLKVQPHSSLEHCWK

Histamine H3 receptor (Rattus norvegicus, UniProt Q9QYN8), sequence (Q9QYN8 whole entry): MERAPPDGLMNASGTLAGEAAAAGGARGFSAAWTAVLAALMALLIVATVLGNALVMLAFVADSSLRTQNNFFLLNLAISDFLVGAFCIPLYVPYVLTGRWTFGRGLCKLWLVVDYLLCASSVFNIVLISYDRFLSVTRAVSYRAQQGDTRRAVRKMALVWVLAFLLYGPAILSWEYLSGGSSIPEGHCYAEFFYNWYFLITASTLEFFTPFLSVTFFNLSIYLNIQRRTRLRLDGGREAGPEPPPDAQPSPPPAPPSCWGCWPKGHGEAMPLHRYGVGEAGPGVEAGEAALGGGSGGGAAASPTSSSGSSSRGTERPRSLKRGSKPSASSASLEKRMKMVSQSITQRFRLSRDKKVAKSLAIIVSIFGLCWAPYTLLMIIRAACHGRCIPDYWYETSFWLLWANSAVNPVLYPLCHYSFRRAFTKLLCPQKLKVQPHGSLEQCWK
Histamine H2 receptor, sequence (P25021 whole entry): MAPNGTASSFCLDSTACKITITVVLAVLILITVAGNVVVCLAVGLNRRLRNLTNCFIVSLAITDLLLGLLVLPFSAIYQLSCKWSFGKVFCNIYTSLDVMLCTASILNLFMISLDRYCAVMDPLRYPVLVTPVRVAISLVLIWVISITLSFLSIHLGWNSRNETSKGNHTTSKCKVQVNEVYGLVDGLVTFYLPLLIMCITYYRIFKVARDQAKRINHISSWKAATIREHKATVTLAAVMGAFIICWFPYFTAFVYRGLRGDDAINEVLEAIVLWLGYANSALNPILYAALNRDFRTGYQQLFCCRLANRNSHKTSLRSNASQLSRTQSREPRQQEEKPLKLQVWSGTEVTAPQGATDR
Histamine H1 receptor, sequence (P35367 whole entry): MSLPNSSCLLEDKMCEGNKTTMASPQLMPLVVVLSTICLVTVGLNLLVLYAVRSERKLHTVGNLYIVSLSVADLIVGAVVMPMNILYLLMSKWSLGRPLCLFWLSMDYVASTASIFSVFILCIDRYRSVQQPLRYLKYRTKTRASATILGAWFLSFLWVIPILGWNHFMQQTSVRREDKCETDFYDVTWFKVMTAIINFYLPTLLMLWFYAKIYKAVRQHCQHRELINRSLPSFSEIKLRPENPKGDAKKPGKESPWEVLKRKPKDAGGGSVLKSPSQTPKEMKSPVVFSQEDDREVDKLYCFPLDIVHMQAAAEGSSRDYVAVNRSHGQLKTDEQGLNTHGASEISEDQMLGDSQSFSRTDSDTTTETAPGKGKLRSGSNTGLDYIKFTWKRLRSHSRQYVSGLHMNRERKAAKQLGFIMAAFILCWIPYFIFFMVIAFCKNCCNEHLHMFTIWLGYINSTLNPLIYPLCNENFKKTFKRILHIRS
Histamine H3 receptor (Rattus norvegicus), sequence (Q9QYN8 whole entry): as the sequence (Q9QYN8 whole entry) above

Usually bioavailability stands for the share of a dose that reaches the circulation, judged against a reference dose that is usually intravenous. Higher therefore signals much systemic uptake. `CCCCCC(=O)c1ccc(OCCCN2CCN(C(=O)OCC)CC2)cc1` showed a bioavailability in data set [1] of 0%.
Broadly, the Ki is a measure of affinity in units of concentration, obtained from inhibition or displacement. Read a high Ki as lower affinity. With `NCCC(=O)N1CCN(CCCOc2ccc(C(=O)C3CC3)cc2)CC1`, the bioavailability in data set [1] turned out to be 46%. Moreover, the Ki on Histamine H1 receptor is 28.2 µM; at Histamine H3 receptor [2], 0.000501 µM; at Histamine H2 receptor, 100 µM.
In general, pKb refers to the Kb on a negative log10 scale, so that one unit is a factor of ten. `C[C@@H](N)C(=O)N1CCN(CCCOc2ccc(C(=O)C3CC3)cc2)CC1`: in data set [1], the bioavailability stood at 83%. The Ki at Histamine H1 receptor is 69.2 µM; on Histamine H3 receptor [2], 0.00126 µM; at Histamine H2 receptor, 70.8 µM. For the same compound, the pKb in data set [3] was determined as 8.75. For the same compound, the Kb at Histamine H3 receptor [4] was 0.105 µM.
